In patent publication US20120122816A1, “COMPOSITIONS AND METHODS FOR ORGAN PRESERVATION” (Resolvyx Pharmaceuticals, Inc., priority 2009, published 2012):
Read-outs that look alike come from different tables or passages of the source.

Tests used:
[1] = system: COX-2 gene expression; assay: Il-1β induced COX-2 promoter luciferase reporter assay in ARPE-19 cells; assay type: cell-based; settings: FIG. 3
Procedure: (§1) The effects of compounds of the invention on apoptotic cell death induced by oxidative stress and on Il-1β induced pro-inflammatory COX-2 gene expression in ARPE-19 cells was measured using the following protocol.
(§2) 72 h grown cells in 6 well plates were serum starved for 8 h, and then oxidative stress was induced with TNF-α/H2O2 (600 μM) for 16 h. Cells were incubated with different concentrations of compound X, compound Z, and compound 48b. Apoptotic cell death was scored by Hoechst positive cells. COX-2 (−830) promoter construct, linked to luciferase reporter gene, was used to transfect ARPE-19 cells by Fugene-6. A β-galactosidase plasmid was co-transfected as transfection control. Transfected cells were serum starved, induced by Il-1β, and incubated with different concentrations of compound X, compound Z, and compound 48b. Luciferase assays were performed using luciferin as substrate.

[2] = system: ARPE-19 cells; assay: Oxidative stress-induced apoptosis (TNF-α/H2O2), Hoechst positive cells; assay type: cell-based; settings: for oxidative stress-induced apoptosis, concentration dependence: 10, 30 and 50 nM; for inhibition at 0.03 µM / inhibition at 0.05 µM: Homo sapiens, ARPE-19; for inhibition at 0.05 µM: 50 nM compound
Procedure: as §1, §2

[3] = system: H9C2 cells; assay: Protection against hypoxia-reoxygenation injury (trypan blue uptake, MTT); assay type: cell-based, rat
[4] = system: Rats; assay: Protection against ischemia reperfusion injury (coronary artery occlusion and reperfusion); assay type: in vivo, rat
Procedure: The ability of compound X, administered before reperfusion, to limit myocardial infarct size (IS) was measured using the following protocol.
Rats were anesthetized with ketamine and xylazine and underwent 30 min of coronary artery occlusion and 4 h of reperfusion. Just before reperfusion rats received compound X i.v. (0.03 mg/kg, 0.1 mg/kg or 0.3 mg/kg) or vehicle alone (control). Area at risk (AR) was assessed by blue dye and IS by triphenyltetrazoliumchloride (TTC) staining.

[5] = system: H9C2 cells; assay: Protection against hypoxia-reoxygenation injury (trypan blue uptake, MTT); assay type: cell-based, rat; remark: listed apart in the source
Procedure: The ability of compound X to protect cardiomyocytes against hypoxia-reoxygenation injury was measured using the following protocol.
H9C2 cells derived from embryonic rat heart tissue were incubated with compound X (0, 1, 10, 100, or 1000 nM). Cells were subjected to 16 h of hypoxia and 2 h of reoxygenation. Cell death was assessed by trypan blue (TB) uptake and cell viability by MTT (3-(4,5-dimethylthiazol-2-yl)-2,5-diphenyl tetrazolium bromide) assay.

[6] = 30 nM compound, TNF-α/H2O2 (600 μM) 16 h, FIG. 1, read-out: inhibition of oxidative stress-induced apoptosis
[7] = TNF-α/H2O2 (600 μM) 16 h, FIG. 1
[8] = i.v. 0.03-0.3 mg/kg, anesthetized rats

Row | SMILES | expression of pro-inflammatory COX-2 [1] | oxidative stress-induced apoptosis, concentration dependence [2] | inhibition at 0.03 µM [2, 6] [%] | inhibition at 0.05 µM [2, 7] [%] | apoptosis [3] | myocardial infarct size (IS) ([4]; i.v. 0.03, 0.1 or 0.3 mg/kg just before reperfusion, 30 min occlusion, 4 h reperfusion, FIG. 4) | heart rate [4, 8] | mean blood pressure [4, 8] | TB (%) (trypan blue positive cells) ([5]; 1.0 nM, 16 h hypoxia, 2 h reoxygenation) | TB (%) (trypan blue positive cells) ([5]; 10 nM, 16 h hypoxia, 2 h reoxygenation) | TB (%) (trypan blue positive cells) ([5]; 100 nM, 16 h hypoxia, 2 h reoxygenation) | TB (%) (trypan blue positive cells) ([5]; 1000 nM, 16 h hypoxia, 2 h reoxygenation) | viability at 0.001 µM ([5]; Rattus norvegicus, H9c2, 1.0 nM, 16 h hypoxia, 2 h reoxygenation, read-out: MTT (%) (cell viability)) | viability at 0.01 µM ([5]; Rattus norvegicus, H9c2, 10 nM, 16 h hypoxia, 2 h reoxygenation, read-out: MTT (%) (cell viability)) | viability at 0.1 µM ([5]; Rattus norvegicus, H9c2, 100 nM, 16 h hypoxia, 2 h reoxygenation, read-out: MTT (%) (cell viability)) | viability at 1 µM ([5]; Rattus norvegicus, H9c2, 1000 nM, 16 h hypoxia, 2 h reoxygenation, read-out: MTT (%) (cell viability)) | concentration of maximal effect ([5]; tested 1-1000 nM) [nM] | inhibition at 0.03 µM ([2]; each compound at 30 nM, plus compound 48b, FIG. 2, read-out: combined inhibition of apoptosis upon addition of compound 48b) [%]
1 | CC/C=C\C[C@H](O)\C=C/C=C/C=C/[C@H](O)C/C=C\C/C=C\CCC(=O)O [Compound 48b] | stronger inhibition | inhibit oxidative stress-induced apoptosis in a concentration dependent manner | ~45 | ~80 | – | – | – | – | – | – | – | – | – | – | – | – | – | –
2 | CC[C@@H](O)/C=C/C=C\C[C@@H](O)/C=C/C=C/C=C\[C@@H](O)CCCC(=O)O [Compound X] | inhibited | inhibit oxidative stress-induced apoptosis in a concentration dependent manner | ~20 | ~30 | decreased apoptosis | dose-dependently limited IS | did not affect | did not affect | 35.5 ± 0.4 | 30.3 ± 0.4 | 23.8 ± 0.9 | 24.1 ± 0.3 | 50.1 ± 0.8 | 62.6 ± 1.2 | 74.6 ± 0.9 | 70.5 ± 0.5 | 100 | ~60
